Reference: US12116364B2, “Heteroaryl compounds and uses thereof” (APRINOIA THERAPEUTICS INC., priority 2018, dated 2024)

What was measured:
[1] = system: tau aggregates (tangles/threads) in temporal cortex sections of an AD brain; assay: Histological examination by fluorescence staining of AD brain sections; format: binding, human; conditions: 0.001% (W/V) compound in 50% ethanol, 30 min, relative to PBB3; for Fluorescent binding Tangle: score for tangles; for Fluorescent binding Thread: score for threads
Description: The fluorescence binding assessment was performed as reported previously^1. For fluorescence labeling with PBB3 and test compounds, deparaffinized temporal cortex sections of an AD brain were incubated in 50% ethanol containing 0.001% (W/V) of PBB3 or test compound at room temperature for 30 min. The samples were rinsed with 50% ethanol for 5 min, dipped into distilled water twice for 3 min, and mounted in non-fluorescent mounting media ([…]; Vector Laboratories). Fluorescence images were captured using a DM4000 microscope (Leica) equipped with a custom filter cube for PBB3 (excitation band-pass at 391-437 nm and suppression low-pass with 458 nm cutoff).

[2] = biological target: recombinant tau proteins (human Tau, heparin-fiberized) (Homo sapiens, UniProt P10636); assay: Fluorescence quantitative Tau binding assay in vitro; conditions: 0.04 uM fiberized recombinant tau, 30 mM Tris pH 7.5, 1 h, fluorometric saturation curve
Description: Expression and Purification of Human Tau Protein
• pET41a-Tau wild type • One Shot® BL21(DE3) Chemically Competent E. coli (Invitrogen, C600003) • Kanamycin sulfate (Sangon Biotech, A506636) • IPTG (Sangon Biotech, A100487) • Pipes buffer (100 mM Pipes, pH6.8, 1 mM EGTA, 1 mM MgSO4) • Hepes buffer (25 mM Hepes, pH7.2, 0.1 mM EDTA, 0.5 mM DTT, 100 mM NaCl) • Q-Sepharose Fast Flow column (GE Healthcare, 17-0510-01) • SP-Sepharose Fast Flow column (GE Healthcare, 17-0729-01) Procedures: Protein Expression: • Step 1: Transform 1 uL expression plasmid pET41a-tau wt into one One Shot® BL21(DE3) Chemically Competent E. coli, on ice 30 min. • Step 2: 42° C. heat shock 90 second and on ice 2 min, 37° C. recovery for 30 min, Plate small amount on LB(Kan+) agar plate incubate overnight at 37° C. • Step 3: Pick and resuspend a single colony in 200 mL liquid culture with 50 ug/mL Kanamycin to produce a starter culture. Inoculate starter culture and shake 200 rpm overnight at 37° C. • Step 4: Add 100× dilution Starter into fresh culture medium (Kan+) shake 200 rpm at 37° C. until OD600=0.8. • Step 5: Add IPTG (final conc. 1 mM) and express protein for 3 hr. • Step 6: Collect cell pellet and store at −80° C. for purification. Protein Purification: • Step 1: Cell pellet was resuspended in Pipes buffer. • Step 2: Sonication and centrifugation (15,000 rpm, 15 min at 4° C. • Step 3: The supernatant was placed in a boiling water bath for 20 min and subsequently centrifuged. The heat-stable proteins in the supernatant were loaded onto a Q-Sepharose Fast Flow column (20 mL) • Step 4: The flow through containing tau was loaded onto SP-Sepharose Fast Flow column (10 mL), eluted with Pipes buffer containing 0.2M NaCl. • Step 6: Fractions containing tau were pooled, concentrated and dialyzed against Hepes buffer, stored at −80° C. • Step 7: Reload SP-Flow through into Q-Sepharose Fast Flow column (20 mL) and SP-Sepharose Fast Flow column (10 mL) again, eluted with Pipes buffer containing 0.2M NaCl. • Step 8: Fractions containing tau were pooled, concentrated and dialyzed against Hepes buffer, stored at −80° C. Repeat step 6-7 twice, Collect all above all elution product and concentrated. Biological Assays Fluorescence Quantitative Tau Binding Assay In Vitro
2 uM of recombinant tau proteins and 15 uM of heparin were fiberized in 30 mM Tris (pH 7.5) buffer by overnight incubation at 37° C. 0.04 uM of recombinant tau proteins which was diluted in 30 mM Tris buffer (pH 7.5) was then reacted with test compounds (containing 1% DMSO) for 1 h. Regarding the fluorometric data, the binding saturation curve was created and the parameter estimation method was conducted using Prism software (GraphPad). Kd values were determined for each of test compounds. Table A lists Kd values of exemplary test compounds.

[3] = biological target: [11C]PBB3 binding sites (tau aggregates) in temporal cortex homogenates of an Alzheimer's disease patient (Homo sapiens, UniProt P10636); assay: Fluorescence competitive binding assay in vitro ([11C]PBB3 displacement in Alzheimer's disease temporal cortex homogenates); conditions: 5 nM [11C]PBB3, AD temporal cortex homogenate (100 μg tissue), 30 min, room temperature
Description: Fluorescence competitive binding assay in vitro was performed as reported previously1. Frozen tissues derived from the temporal cortex of an Alzheimer's disease patient was homogenized in 50 mM Tris-HCl buffer, pH 7.4, containing protease inhibitor cocktail (cOmplete™, EDTA-free; Roche), and stored at −80° C. pending analyses. To assay radioligand binding with homologous or heterologous blockade, these homogenates (100 μg tissue) were incubated with 5 nM [11C]PBB3 (molar radioactivity: 100-150 GBq/μmol) in the absence or presence of unlabeled PBB3 at varying concentrations ranging from 10-11-106 M in Tris-HCl buffer containing 10% ethanol, pH 7.4, for 30 min at room temperature. Non-specific binding of [11C]PBB3 was determined in the presence of 5×10^−7 M PBB3. Samples were run once only and specific radioligand binding was determined as pmol/g tissue. Inhibition constant (Ki) and percentage of displacement were determined by using non-linear regression to fit a concentration-binding plot to one-site and two-site binding models derived from the Cheng-Prusoff equation with GraphPad Prism version 6.0 (GraphPad Software), followed by F-test for model selection. In a one-site homologous blockade model, dissociation constant (Kd) was calculated from homologous competitive binding using this function: Kd=Ki=IC50−Radioligand
where IC50 and [Radioligand] stand for the concentration of the competitor inducing 50% inhibition and radioligand concentration, respectively. Experiments with [^11C]PBB3 and unlabeled PBB3 were performed in a dimly lit condition to avoid photoconversion of the compounds. Table B lists Ki values of exemplary test compounds.

recombinant tau proteins (human Tau, heparin-fiberized), sequence (P10636 whole entry): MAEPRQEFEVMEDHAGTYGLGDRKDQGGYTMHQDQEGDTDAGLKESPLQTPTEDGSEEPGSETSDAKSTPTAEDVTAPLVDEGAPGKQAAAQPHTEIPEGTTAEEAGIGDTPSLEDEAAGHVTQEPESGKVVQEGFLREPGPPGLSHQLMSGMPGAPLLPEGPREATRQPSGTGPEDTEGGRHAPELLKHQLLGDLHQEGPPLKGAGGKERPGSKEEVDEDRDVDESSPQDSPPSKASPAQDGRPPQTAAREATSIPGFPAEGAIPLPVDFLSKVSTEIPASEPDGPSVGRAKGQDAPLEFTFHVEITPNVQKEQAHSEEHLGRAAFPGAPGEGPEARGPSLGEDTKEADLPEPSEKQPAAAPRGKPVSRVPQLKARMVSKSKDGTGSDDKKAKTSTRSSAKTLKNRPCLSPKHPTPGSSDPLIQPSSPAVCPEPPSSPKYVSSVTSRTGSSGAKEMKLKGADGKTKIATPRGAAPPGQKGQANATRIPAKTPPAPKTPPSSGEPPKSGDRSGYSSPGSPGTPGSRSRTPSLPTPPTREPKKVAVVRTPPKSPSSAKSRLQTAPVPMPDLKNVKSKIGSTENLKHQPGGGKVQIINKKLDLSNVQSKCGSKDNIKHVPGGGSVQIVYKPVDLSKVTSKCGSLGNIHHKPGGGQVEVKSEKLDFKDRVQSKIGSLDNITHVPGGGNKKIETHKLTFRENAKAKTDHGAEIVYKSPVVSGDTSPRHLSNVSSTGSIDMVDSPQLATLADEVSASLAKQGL
[11C]PBB3 binding sites (tau aggregates) in temporal cortex homogenates of an Alzheimer's disease patient, sequence (P10636 623-695 limits assumed): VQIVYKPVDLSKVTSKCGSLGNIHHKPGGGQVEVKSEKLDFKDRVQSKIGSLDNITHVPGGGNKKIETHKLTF

| Compound | Fluorescent binding Tangle [1] | Fluorescent binding Thread [1] | Kd [2] [nM] | Ki [3] [nM] |
| --- | --- | --- | --- | --- |
| Nc1cccc(-c2ccc(-c3cc4ccncc4[nH]3)cc2)c1 [Compound A, 3-[4-(1H-Pyrrolo[2,3-c]pyridin-2-yl)phenyl]aniline] | 2/2 | 2/2 | 500 | 45 |
| CNc1ccc(-c2ccc(-c3cc4ccncc4[nH]3)c(F)n2)cn1 [Compound E, 6-Fluoro-N-methyl-5-(1H-pyrrolo[2,3-c]pyridin-2-yl)-2,3′-bipyridin-6′-amine] | 3/3 | 3/3 | 2700 | 5 |
| CNc1ccc(-c2ccc(-c3cc4ccncc4[nH]3)nc2F)cn1 [Compound S, 5-[2-Fluoranyl-6-(1H-pyrrolo[2,3-c]pyridin-2-yl)pyridin-3-yl]-N-methyl-pyridin-2-amine] | 3/3 | 3/3 | 940 | 15 |

Further compounds by falling Kd [2], results first:

| Fluorescent binding Tangle [1] | Fluorescent binding Thread [1] | Kd [2] [nM] | Ki [3] [nM] | Compound |
| --- | --- | --- | --- | --- |
| 3/3 | 3/3 | 1820 | 15 | CNc1ccc(-c2cc(F)c(-c3cc4ccncc4[nH]3)cn2)cn1 [Compound R, 4-Fluoro-N-methyl-5-(1H-pyrrolo[2,3-c]pyridin-2-yl)-2,3′-bipyridin-6′-amine] |
| 1 | 0 | 370 | 45 | CNc1ccc(-c2ccc(-c3cn4cc(NCC(O)CF)ccc4n3)cc2)cn1 (centres unmarked) [Compound P, 1-Fluoro-3-(2-(4-(6-(methylamino)pyridin-3-yl)phenyl)imidazo[1,2-a]pyridin-6-ylamino)propan-2-ol] |
